Laboratory results: patent publication US20140323300A1, “HERBICIDAL COMPOUNDS” (SYNGENTA LIMITED, priority 2011, published 2014)

Columns and labels:
Format in all cases: in vivo
[1] = test system: Alopecurus myosuroides (ALOMY); assay: Post-emergence glasshouse herbicide test; conditions: post-emergence (sprayed after 8 days cultivation), 1000 g/h, evaluated after 13 days, five point scale
Experimental: (§1) Seeds of a variety of test species are sown in standard soil in pots (Alopecurus myosuroides (ALOMY), Setaria faberi (SETFA), Echinochloa crus-galli (ECHCG), Solanum nigrum (SOLNI), Amaranthus retoflexus (AMARE), Ipomoea hederacea (IPOHE)). After cultivation for one day (pre-emergence) or after 8 days cultivation (post-emergence) under controlled conditions in a glasshouse (at 24/16° C., day/night; 14 hours light; 65% humidity), the plants are sprayed with an aqueous spray solution derived from the formulation of the technical active ingredient in acetone/water (50:50) solution containing 0.5% Tween 20 (polyoxyethelyene sorbitan monolaurate, CAS RN 9005-64-5). Compounds are applied at 1000 g/h. The test plants are then grown in a glasshouse under controlled conditions in a glasshouse (at 24/16° C., day/night; 14 hours light; 65% humidity) and watered twice daily. After 13 days for pre and post-emergence, the test is evaluated for the percentage damage caused to the plant. The biological activities are shown in the following table on a five point scale (5=80-100%; 4=60-79%; 3=40-59%; 2=20-39%; 1=0-19%).

[2] = test system: Amaranthus retoflexus (AMARE); assay: Post-emergence glasshouse herbicide test; conditions: post-emergence (sprayed after 8 days cultivation), 1000 g/h, evaluated after 13 days, five point scale
Experimental: as §1

[3] = test system: Echinochloa crus-galli (ECHCG); assay: Post-emergence glasshouse herbicide test; conditions: post-emergence (sprayed after 8 days cultivation), 1000 g/h, evaluated after 13 days, five point scale
Experimental: as §1

[4] = test system: Ipomoea hederacea (IPOHE); assay: Post-emergence glasshouse herbicide test; conditions: post-emergence (sprayed after 8 days cultivation), 1000 g/h, evaluated after 13 days, five point scale
Experimental: as §1

Setaria faberi (SETFA) [5] = assay: Post-emergence glasshouse herbicide test; conditions: post-emergence (sprayed after 8 days cultivation), 1000 g/h, evaluated after 13 days, five point scale
Experimental: as §1

Solanum nigrum (SOLNI) [6] = assay: Post-emergence glasshouse herbicide test; conditions: post-emergence (sprayed after 8 days cultivation), 1000 g/h, evaluated after 13 days, five point scale
Experimental: as §1

[7] = test system: Alopecurus myosuroides (ALOMY); assay: Pre-emergence glasshouse herbicide test; conditions: pre-emergence (sprayed after one day cultivation), 1000 g/h, evaluated after 13 days, five point scale
Experimental: as §1

[8] = test system: Amaranthus retoflexus (AMARE); assay: Pre-emergence glasshouse herbicide test; conditions: pre-emergence (sprayed after one day cultivation), 1000 g/h, evaluated after 13 days, five point scale
Experimental: as §1

[9] = test system: Echinochloa crus-galli (ECHCG); assay: Pre-emergence glasshouse herbicide test; conditions: pre-emergence (sprayed after one day cultivation), 1000 g/h, evaluated after 13 days, five point scale
Experimental: as §1

[10] = test system: Ipomoea hederacea (IPOHE); assay: Pre-emergence glasshouse herbicide test; conditions: pre-emergence (sprayed after one day cultivation), 1000 g/h, evaluated after 13 days, five point scale
Experimental: as §1

Setaria faberi (SETFA) [11] = assay: Pre-emergence glasshouse herbicide test; conditions: pre-emergence (sprayed after one day cultivation), 1000 g/h, evaluated after 13 days, five point scale
Experimental: as §1

Solanum nigrum (SOLNI) [12] = assay: Pre-emergence glasshouse herbicide test; conditions: pre-emergence (sprayed after one day cultivation), 1000 g/h, evaluated after 13 days, five point scale
Experimental: as §1

| SMILES | percentage damage caused to the plant, POST Application ALOMY [1] | percentage damage caused to the plant, POST Application AMARE [2] | percentage damage caused to the plant, POST Application ECHCG [3] | percentage damage caused to the plant, POST Application IPOHE [4] | percentage damage caused to the plant, POST Application SETFA (Setaria faberi (SETFA) [5]) | percentage damage caused to the plant, POST Application SOLNI (Solanum nigrum (SOLNI) [6]) | percentage damage caused to the plant, PRE Application ALOMY [7] | percentage damage caused to the plant, PRE Application AMARE [8] | percentage damage caused to the plant, PRE Application ECHCG [9] | percentage damage caused to the plant, PRE Application IPOHE [10] | percentage damage caused to the plant, PRE Application SETFA (Setaria faberi (SETFA) [11]) | percentage damage caused to the plant, PRE Application SOLNI (Solanum nigrum (SOLNI) [12]) |
| --- | --- | --- | --- | --- | --- | --- | --- | --- | --- | --- | --- | --- |
| Cc1c(-n2nccc(O)c2=O)ccc(S(C)(=O)=O)c1C1=NOCC1 [Compound 1.008] | 5 (5=80-100%) | 5 (5=80-100%) | 5 (5=80-100%) | 5 (5=80-100%) | 5 (5=80-100%) | 5 (5=80-100%) | 2 (2=20-39%) | 5 (5=80-100%) | 5 (5=80-100%) | 5 (5=80-100%) | 5 (5=80-100%) | 5 (5=80-100%) |
| C=Cc1cnn(-c2ccc(S(C)(=O)=O)c(C3=NOCC3)c2C)c(=O)c1O [Compound 1.006] | 4 (4=60-79%) | 5 (5=80-100%) | 5 (5=80-100%) | 5 (5=80-100%) | 5 (5=80-100%) | 5 (5=80-100%) | 1 (1=0-19%) | 5 (5=80-100%) | 5 (5=80-100%) | 4 (4=60-79%) | 4 (4=60-79%) | 5 (5=80-100%) |
| CS(=O)(=O)c1cc(Cl)ccc1-n1ncc(S(C)(=O)=O)c(O)c1=O [Compound 1.047] | 1 (1=0-19%) | 2 (2=20-39%) | 1 (1=0-19%) | 2 (2=20-39%) | 1 (1=0-19%) | 2 (2=20-39%) | 1 (1=0-19%) | 2 (2=20-39%) | 1 (1=0-19%) | 2 (2=20-39%) | 1 (1=0-19%) | 2 (2=20-39%) |
| CCc1cnn(-c2ccc(C(F)(F)F)cc2S(C)(=O)=O)c(=O)c1O [Compound 1.045] | 5 (5=80-100%) | 5 (5=80-100%) | 5 (5=80-100%) | 5 (5=80-100%) | 5 (5=80-100%) | 5 (5=80-100%) | 5 (5=80-100%) | 5 (5=80-100%) | 5 (5=80-100%) | 5 (5=80-100%) | 5 (5=80-100%) | 5 (5=80-100%) |
| Cc1nc(C(F)(F)F)ccc1-n1ncc([S+](C)[O-])c(O)c1=O (stereo not drawn) [Compound 1.030] | 2 (2=20-39%) | 4 (4=60-79%) | 5 (5=80-100%) | 3 (3=40-59%) | 5 (5=80-100%) | 5 (5=80-100%) | 2 (2=20-39%) | 4 (4=60-79%) | 5 (5=80-100%) | 3 (3=40-59%) | 5 (5=80-100%) | 5 (5=80-100%) |
